From ChEMBL document CHEMBL4251620, “Biological evaluation of indolizine-chalcone hybrids as new anticancer agents” (Eur J Med Chem, 2018)
Calls of active or inactive are those of the source. The rule behind the calls is not given here.

Tests used:
[1] = system: U-937; assay: Cytotoxicity activity against human U937 cells assessed as cell viability at 1 uM after 48 hrs by CCK-8 assay; format: functional; conditions: U-937, 48 h, read-out: Activity
[2] = system: U-937; assay: Cytotoxicity activity against human U937 cells assessed as reduction in cell viability after 48 hrs by CCK-8 assay; format: functional, cell-based; conditions: U-937, 48 h
[3] = system: U-937; assay: Induction of apoptosis in human U937 cells assessed as increase in caspase-3/7 activity at 3 uM after 6 hrs; format: functional, cell-based
[4] = system: U-937; assay: Induction of apoptosis in human U937 cells assessed as viable cells at 3 uM after 48 hrs by muse Annexin V/dead cell reagent staining-based flow cytometric analysis (reference value: 97.07%); format: functional; conditions: U-937, 48 h, read-out: Activity
[5] = system: U-937; assay: Induction of apoptosis in human U937 cells assessed as early apoptotic cells at 3 uM after 48 hrs by muse Annexin V/dead cell reagent staining-based flow cytometric analysis (reference value: 1.87%); format: functional
[6] = system: U-937; assay: Induction of apoptosis in human U937 cells assessed as late apoptotic cells at 3 uM after 48 hrs by muse Annexin V/dead cell reagent staining-based flow cytometric analysis (reference value: 1%); format: functional
[7] = system: U-937; assay: Induction of apoptosis in human U937 cells assessed as necrotic cells at 3 uM after 48 hrs by muse Annexin V/dead cell reagent staining-based flow cytometric analysis (reference value: 0.06%); format: functional
[8] = system: U-937; assay: Induction of apoptosis in human U937 cells assessed as viable cells at 10 uM after 48 hrs by muse Annexin V/dead cell reagent staining-based flow cytometric analysis (reference value: 97.07%); format: functional; conditions: U-937, 48 h, read-out: Activity
[9] = system: U-937; assay: Induction of apoptosis in human U937 cells assessed as early apoptotic cells at 10 uM after 48 hrs by muse Annexin V/dead cell reagent staining-based flow cytometric analysis (reference value: 1.87%); format: functional
[10] = system: U-937; assay: Induction of apoptosis in human U937 cells assessed as late apoptotic cells at 10 uM after 48 hrs by muse Annexin V/dead cell reagent staining-based flow cytometric analysis (reference value: 1%); format: functional
[11] = system: U-937; assay: Induction of apoptosis in human U937 cells assessed as necrotic cells at 10 uM after 48 hrs by muse Annexin V/dead cell reagent staining-based flow cytometric analysis (reference value: 0.06%); format: functional
[12] = system: U-937; assay: Cytotoxicity activity against human U937 cells assessed as reduction in cell viability at 1 uM after 48 hrs by CCK-8 assay; format: functional, cell-based
[13] = system: Raji; assay: Cytotoxicity against human Raji cells assessed as reduction in cell viability after 48 hrs by CCK-8 assay; format: functional, cell-based
[14] = system: JeKo-1; assay: Cytotoxicity activity against human JeKo1 cells assessed as reduction in cell viability after 48 hrs by CCK-8 assay; format: functional, cell-based; conditions: JeKo-1, 48 h
[15] = system: U-937; assay: Induction of apoptosis in human U937 cells at 10 uM after 48 hrs by muse Annexin V/dead cell reagent staining-based flow cytometric analysis (reference value: 2.95%); format: functional
[16] = system: Raji; assay: Induction of apoptosis in human Raji cells at 10 uM after 48 hrs by muse Annexin V/dead cell reagent staining-based flow cytometric analysis (reference value: 9.58%); format: functional
[17] = system: JeKo-1; assay: Induction of apoptosis in human JeKo1 cells at 10 uM after 48 hrs by muse Annexin V/dead cell reagent staining-based flow cytometric analysis (reference value: 5.21%); format: functional

Structure (SMILES): COc1ccccc1/C=C/C(=O)c1cc2cccn2c(C(=O)c2ccccc2)c1C
- viability at 1 µM [1]: > 80%

Structure (SMILES): Cc1c(C(=O)/C=C/c2ccc(Br)cc2)cc2cccn2c1C(=O)c1ccccc1
- IC50 [2]: 1380 nM
- Activity [3]: Active
- viability at 1 µM [1]: < 80%
- viability at 3 µM [4]: 25.7%
- Activity [5]: 31.36%
- Activity [6]: 42.16%
- Activity [7]: 0.77%
- viability at 10 µM [8]: 8.31%
- Activity [9]: 14.54%
- Activity [10]: 76.56%
- Activity [11]: 0.59%

Structure (SMILES): Cc1c(C(=O)/C=C/c2ccc(Cl)cc2)cc2cccn2c1C(=O)c1ccccc1
- Activity [12]: Active
- viability at 1 µM [1]: > 80%

Structure (SMILES): COc1cc(/C=C/C(=O)c2cc3cccn3c(C(=O)c3ccccc3)c2C)cc(OC)c1OC
- IC50 [2]: 5950 nM

Structure (SMILES): Cc1c(C(=O)/C=C/c2ccc(Br)o2)cc2cccn2c1C(=O)c1ccccc1
- viability at 1 µM [1]: > 80%

Structure (SMILES): Cc1c(C(=O)/C=C/c2ccc([N+](=O)[O-])cc2)cc2cccn2c1C(=O)c1ccccc1
- IC50 [2]: 1380 nM
- Activity [3]: Active
- viability at 1 µM [1]: < 80%
- viability at 3 µM [4]: 26.4%
- Activity [5]: 24.87%
- Activity [6]: 47.12%
- Activity [7]: 1.57%
- viability at 10 µM [8]: 13.7%
- Activity [9]: 16.34%
- Activity [10]: 68.63%
- Activity [11]: 1.31%

Structure (SMILES): Cc1c(C(=O)/C=C/c2cccc(Cl)c2)cc2cccn2c1C(=O)c1ccccc1
- IC50 [2]: 1280 nM
- Activity [12]: Active
- Activity [3]: Active
- viability at 1 µM [1]: < 80%
- viability at 3 µM [4]: 15.8%
- Activity [5]: 29.36%
- Activity [6]: 54.29%
- Activity [7]: 0.55%
- viability at 10 µM [8]: 7.84%
- Activity [9]: 5.94%
- Activity [10]: 85.99%
- Activity [11]: 0.24%

Structure (SMILES): Cc1ccc(/C=C/C(=O)c2cc3cccn3c(C(=O)c3ccccc3)c2C)cc1
- viability at 1 µM [1]: > 80%

Structure (SMILES): Cc1c(C(=O)/C=C/c2ccncc2)cc2cccn2c1C(=O)c1ccccc1
- IC50 [2]: 1370 nM
- Activity [3]: Active
- viability at 1 µM [1]: < 80%
- viability at 3 µM [4]: 21.4%
- Activity [5]: 30.03%
- Activity [6]: 47.68%
- Activity [7]: 0.93%
- viability at 10 µM [8]: 10.7%
- Activity [9]: 6.21%
- Activity [10]: 83.05%
- Activity [11]: 0%

Structure (SMILES): COc1cc(/C=C/C(=O)c2cc3cccn3c(C(=O)c3ccccc3)c2C)cc(OC)c1
- IC50 [2]: 1120 nM
- Activity [3]: Active
- viability at 1 µM [1]: < 80%
- viability at 3 µM [4]: 14.2%
- Activity [5]: 39.59%
- Activity [6]: 45.57%
- Activity [7]: 0.62%
- viability at 10 µM [8]: 3.36%
- Activity [9]: 8.22%
- Activity [10]: 88.41%
- Activity [11]: 0%
- IC50 [13]: 1990 nM
- IC50 [14]: 1300 nM
- Activity [15]: 51.26%
- Activity [16]: 33.78%
- Activity [17]: 46.27%

Structure (SMILES): COc1cc(/C=C2\CCc3c(cc4cccn4c3C(=O)c3ccccc3)C2=O)cc(OC)c1
- IC50 [2]: 9460 nM

Structure (SMILES): Cc1c(C(=O)/C=C/c2ccc3ccccc3c2)cc2cccn2c1C(=O)c1ccccc1
- viability at 1 µM [1]: > 80%

Structure (SMILES): Cc1c(C(=O)/C=C/c2ccc3c(c2)OCO3)cc2cccn2c1C(=O)c1ccccc1
- viability at 1 µM [1]: > 80%

Structure (SMILES): Cc1c(C(=O)/C=C/c2cccc(F)c2)cc2cccn2c1C(=O)c1ccccc1
- Activity [12]: Active
- viability at 1 µM [1]: > 80%

Structure (SMILES): COc1cccc2c1C(=O)c1c(O)c3c(c(O)c1C2=O)C[C@@](O)(C(=O)CO)C[C@@H]3O[C@H]1C[C@H](N)[C@H](O)[C@H](C)O1 [DOXORUBICIN]
- IC50 [2]: 280 nM
- IC50 [13]: 170 nM
- IC50 [14]: 180 nM
- Activity [15]: 74.66%
- Activity [16]: 95.35%
- Activity [17]: 87.92%

Structure (SMILES): COc1cc(/C=C/C(=O)c2cc3cccn3c(C(=O)c3ccco3)c2C)cc(OC)c1
- IC50 [2]: 7530 nM

Structure (SMILES): COc1ccc(/C=C/C(=O)c2cc3cccn3c(C(=O)c3ccccc3)c2C)cc1OC
- viability at 1 µM [1]: > 80%

Structure (SMILES): Cc1c(C(=O)/C=C/c2ccccc2)cc2cccn2c1C(=O)c1ccccc1
- viability at 1 µM [1]: > 80%

Structure (SMILES): COc1ccc(C(=O)c2c(C)c(C(=O)/C=C/c3cc(OC)cc(OC)c3)cc3cccn23)cc1
- IC50 [2]: 6560 nM

Structure (SMILES): COc1cccc(/C=C/C(=O)c2cc3cccn3c(C(=O)c3ccccc3)c2C)c1
- viability at 1 µM [1]: > 80%

Structure (SMILES): Cc1c(C(=O)/C=C/c2ccc(Br)s2)cc2cccn2c1C(=O)c1ccccc1
- viability at 1 µM [1]: > 80%

Structure (SMILES): COc1ccc(/C=C/C(=O)c2cc3cccn3c(C(=O)c3ccccc3)c2C)cc1
- viability at 1 µM [1]: > 80%

Structure (SMILES): Cc1c(C(=O)/C=C/c2ccc(F)cc2)cc2cccn2c1C(=O)c1ccccc1
- Activity [12]: Active
- viability at 1 µM [1]: > 80%
